The results in this text go back to patent publication US20230338356A1, “TREATMENT OF AUTOIMMUNE SKIN DISEASE” (Aslan Pharmaceuticals Pte Ltd, priority 2022, published 2023).

Test [1] deals with proliferating CD3+ T cells in human hair follicles. The experiment in a line: CD3/Ki-67 immunofluorescence of cultured human hair follicles after CD3/CD28 activation. The class given is cell-based. The settings on record: 70 or 140 nM farudodstat + 25 μg/ml CD3/CD28, vs CD3/CD28 alone. As for the experimental part:
(§1) Human hair follicle samples were obtained after informed after informed, written patient consent and ethics committee approval (University of Muenster 2015-602-f-S) and the Comite de Bioetica de la Universidad Fernando Pessoa Canarias (03 (2020-06-22)). This study was conducted according to the Declaration of Helsinki principles.
Cryosections of cultured human hair follicles were immunostained, using antibodies against the human CD3 transmembrane protein of T-lymphocytes (THERMOFISHER, Cat. 15-0038-45, clone UCHT1) and Ki-67, which is a marker of proliferation (ABCAM. Cat. ab15580). Fluorescent images were acquired using the Keyence BZ-X810 inverted microscope and CD3 and double positive cells were counted in epithelium and mesenchyme along the entire hair follicle. The number of proliferative CD3+ T-cells is given as a total number of double positive cells per hair follicle.
(§2) Human hair follicles (HF) were cultured on Day 0 in 48-well plates (1 HF per […]) at 37° C. with 5% CO2 in a media William's E media+RPMI (Gibco, Life Technologies) supplemented with 10 ng/ml hydrocortisone (Sigma Aldrich), 10 μg/ml insulin (Sigma Aldrich), 2 mM L-glutamine (Sigma Aldrich), and 1% penicillin/streptomycin mix (Gibco).
On Day 1, anagen VI HFs were selected for further culture. For quality control, only HFs that grew at least 3% from Day 0 to Day 1 were selected for continued experimentation, […]

A further test deals with C3H/HeJ mice. The test is described as follows: Hair coverage in alopecia areata (AA) skin-graft mouse model. The class given is in vivo. Conditions: 150 or 300 mg/kg/day oral gavage once daily, week 8 time point (10 weeks after engraftment), vs vehicle. As for the experimental part:
The C3H/HeJ mouse strain is known to spontaneously develop alopecia (AA) at a low frequency over a prolonged time frame. Transplantation of AA-affected skin from a C3H/HeJ mouse to unaffected C3H/HeJ recipients will induce the development of AA in nearly 100% of recipients over 4-8 weeks. Accordingly, to produce the AA mouse model, AA-affected C3H/HeJ skin was grafted onto groups of unaffected C3H/HeJ mice. The following treatment groups (n=10 per treatment group) were tested: • 1. Vehicle 0.5% methylcellulose (negative control) • 2. 150 mg/kg/day farudodstat • 3. 300 mg/kg/day farudodstat Treatments were administered once daily by oral gavage starting 2 weeks after engraftment and concluded after 12 weeks (84 days) of treatment. Photographs were taken at baseline, and every 4 weeks until the end of study Ventral hair growth was scored based on the photographs. Any mouse that had >98% hair coverage was classified as ‘no hair loss’.

The test system of a further test is PMEL T cell. The test is described as follows: Flow cytometry of PMEL T cell counts in tissues of vitiligo mouse model. The class given is in vivo.
For a further test, the system named is Krt14-KitL* (SCF) mice. The test is described as follows: Vitiligo scoring in vitiligo mouse model. The class given is in vivo. Conditions: 6 weeks (30 treatment days).
For another test, the system named is MHC Class I. The test is described as follows: MHC-I immunostaining of cultured human hair follicles after CD3/CD28 activation. The settings on record: 70 or 140 nM farudodstat + 25 μg/ml CD3/CD28, vs CD3/CD28 alone. In kind it is cell-based. On the procedure:
as §1
Cryosections of cultured human hair follicles were immunostained, using a monoclonal mouse antibody against human MHC-I (DAKO, Cat. R7000, clone W6/32). Fluorescent images were acquired using the Keyence BZ-X810 inverted microscope and images were analysed using ImageJ software.
as §2
On Day 1, anagen VI HFs were selected for further culture. For quality control, only HFs that grew at least 3% from Day 0 to Day 1 were selected for continued experimentation,
In order to induce hair follicle immune privilege collapse and to activate resident intra/perifollicular immune cells, the hair follicles were pre-treated with CD3/CD28. […]

Consider `COc1cccc(-c2cc(F)c(Nc3ncccc3C(=O)O)c(F)c2)c1` [farudodstat, 2-(3,5-difluoro-3′-methoxybiphenyl-4-ylamino) nicotinic acid], for which, in test [1], the “CD3+ T cell expansion (% of proliferating T-cells in hair follicles)” value is recorded as “T cell expansion was reduced”. Moreover, the “mean % hair coverage” value in the test on C3H/HeJ mice is on record as “slight improvement in % hair coverage compared to the mice treated with vehicle”. Also, in the test with PMEL T cell (150 mg/kg/day oral gavage, end of experiment, flow cytometry), the “mean PMEL count, 150 mg/kg/day compared to 75 mg/kg/day” value is reported as “greater reduction in mean PMEL count compared to 75 mg/kg/day”. For the same compound, the “mean PMEL T cell count, dermis and epidermis” value with PMEL T cell (75 and 150 mg/kg/day oral gavage, end of experiment, flow cytometry) is given as “reduction in mean Pmel T cell count”. Also, the “mean PMEL count in the spleen” value with PMEL T cell (oral gavage, compared with anti-IFNγ 250 μg twice a week IP) was “reduction in mean PMEL count in the spleen that was even greater than that observed for anti-IFNγ”. In addition, the “final mean vitiligo score” value in the test on Krt14-KitL* (SCF) mice (75 mg/kg/day oral gavage, vs vehicle) is “improvement in vitiligo score compared to the vehicle treated control group”; with Krt14-KitL* (SCF) mice (150 mg/kg/day oral gavage, vs vehicle and vs 75 mg/kg/day), “greater improvement in vitiligo score compared to the 75 mg/kg/day group”. For the same compound, the “MHC Class I expression levels in hair follicles” value in the test with MHC Class I is on record as “decreased MHC Class I expression levels”.
